Values quoted from earlier work, collected in patent US9955683B2, “Insecticidal apparatus and methods” (priority 2012, dated 2018).

Columns and labels:
blowfly larvae = settings: sheep
[1] = ruminants; excretion mainly via the feces

In the case of `Nc1nc(N)nc(NC2CC2)n1` [cyromazine], the “duration for which control of blowfly larvae can be maintained” value (blowfly larvae; after a single pour-on application) is given as “up to 13 wk”.

In the case of Ivermectin, the “fraction of unaltered molecule excreted in the urine” value [1] is listed as less than 2%.

For `N#Cc1c(N)nc(NC2CC2)nc1N` [Dicyclanil], the “duration of protection, blowfly control” value (blowfly larvae; pour-on formulation) is listed as “up to 20 wk”.

For `O=C(NC(=O)c1c(F)cccc1F)Nc1ccc(Cl)cc1` [Diflubenzuron], the “duration of protection against blowfly strike” value (blowfly larvae; emulsifiable concentrate used as a dip or shower, preventive use) is given as 12-14 wk.
